# Test results: patent US10982100B2, “Slippery liquid-infused porous surfaces and biological applications thereof” (President and Fellows of Harvard College, priority 2011, dated 2021)
# Experiments:
# [1] = Surface tension of polar and non-polar liquids; format: physicochemical
# Description: Fluid-fluid interfacial tension can be measured by many well-established techniques, such as the Wilhelmy plate method, the Du Noüy ring method, and the pendant drop method (e.g., see Drelich et al., in Encyclopedia of Surface and Colloid Science, pp. 3152-3166, Marcel Dekker Inc, 2002, the contents of which is incorporated by reference herein in its entirety). Among all of the techniques, the pendant drop method is among the most popular and versatile technique, which can be easily extended to a two-liquid system. The pendant drop method measures the shape of a fluid-fluid interface and quantifies the shape distortion due to the competition between the fluid-fluid interfacial tension and gravity. In practice, a drop of denser fluid (e.g., Object A) is suspended by a syringe needle in medium X (i.e., air/water/the lubricating fluid). Owing to the influence of gravity, the denser liquid droplet will be deformed as the liquid volume increases. The shape profile of the liquid droplet is captured by an optical system and subsequently analyzed by a computer software when the liquid volume is increased to the maximum possible size (i.e., before the liquid drop is detached from the syringe needle). The interfacial tension of the fluid-fluid interface, γ, can then be deduced from the formula, γ=ΔρgD^2/H, where Δρ is the density difference between the two immiscible fluids, g is gravity, D is equatorial diameter of the liquid droplet, and H is drop shape dependent parameters which is a function of the shape profile of the droplet.
# [2] = Contact angles of various liquids on flat solids; format: physicochemical; set-up: unit not given here
# Experimental: The behavior of liquids on surfaces is described by an equilibrium contact angle. An equilibrium contact angle, θ, is the angle at which a liquid/vapor interface meets a solid surface, which is determined by the interactions across the three interfaces, e.g., solid/liquid/vapor. […] The upper limit is known as the apparent advancing contact angle (θA), whereas the lower limit is referred as the apparent receding contact angle (θR). The difference between these values is known as contact angle hysteresis (i.e., Δθ=θA−θR, where θA≥θ≥θR), which characterizes the liquid repellency of a surface. Conventionally, equilibrium contact angle can be roughly estimated by the average of the advancing and receding angles (i.e., θ=(θA+θR)/2), or by a static contact angle, θstatic (i.e., θ=θstatic).
# In practice, contact angle measurement can be performed by a number of different well-established techniques, such as the sessile drop method and the Wilhelmy method. In particular, the sessile drop method is among the most popular technique for contact angle measurement. In this technique, a liquid droplet is deposited on a targeted solid surface, where the liquid profile is captured by an optical system of a goniometer and geometrically fitted to obtain the contact angle. The contact angle measured from a static liquid droplet deposited on the surface is known as the static contact angle, θstatic. Using the same system, advancing contact angle, θA, can be measured while the volume of the drop is increasing until the wetting line starts to advance. Receding contact angle, θR, can be measured by decreasing the volume of the drop and determining the contact angle just before the wetting line recedes. Alternatively, the advancing and the receding angles of the liquid drop can also be determined by gradually tilting the solid surface until the liquid drop starts to move.
# [3] = Stable lubricating film for solid-Liquid A-Liquid B combinations, theory versus experiment; format: physicochemical; set-up: key: “Y” indicates that Liquid B forms a stable lubricating film, and is not displaced by Object A; “N” indicates that Liquid B is displaced by Object A; conditions: label = Liquid A
# Description: When the relationship holds, the lubricating liquid will stay in intimate contact with the porous solid without being displaced by Liquid A. Note that the equilibrium contact angles were estimated from the average values of the advancing and receding contact angles of Liquid A and the lubricating liquid on the flat solid surface. Satisfying the relationship can help promote the operation stability of the slippery surface where the liquid layer is substantially completely covered by the test liquid (i.e., two-phase environments that involve a single fluid interface between the test liquid and the liquid layer) and where the liquid layer contacts a droplet of the test fluid as well as air (i.e., three-phase environments that involve three fluid interfaces of (i) test liquid-liquid layer, (ii) test liquid-air, and (iii) liquid layer-air). […] Notice that γA and γB are equivalent to γAX and γBX defined in the text, and medium X is air specifically in this context. Variable γAB represents the interfacial tension for Object A-Liquid B interface. […] M., Ind. Eng. Chem. 56, 40-42, 1964; Israelachvili, J. N. Intermolecular and Surface Forces, Academic Press, 2011). The dispersion force contribution of water surface tension […]., Ind. Eng. Chem. 56, 40-42, 1964). S. Epoxy represents silanized epoxy resin substrate.
# P. aeruginosa = conditions: 1% and 0.1% concentrations; 3, 6, 9, and 30 hours; 550 nm
# [4] = flat solid S. (silanized epoxy)
# [5] = Solid Epoxy, Liquid B FC-70, R 1
# [6] = Solid Epoxy, Liquid B FC-70, R 2
# [7] = Solid S. Epoxy (silanized epoxy resin), Liquid B FC-70, R 2
# [8] = Solid Silicon, Liquid B H2O, R 1
SMILES,Surface Tension [1] [mN/m],Measured contact angle θadv ([2]; flat solid Epoxy),Measured contact angle θrec ([2]; flat solid Epoxy),Measured contact angle θstatic ([2]; flat solid Epoxy),"Measured contact angle θadv [2, 4]","Measured contact angle θrec [2, 4]","Measured contact angle θstatic [2, 4]",Measured contact angle θadv ([2]; flat solid Silicon),Measured contact angle θrec ([2]; flat solid Silicon),Measured contact angle θstatic ([2]; flat solid Silicon),"Stable Film? Exp. [3, 6]","Stable Film? Theory [3, 6]","Stable Film? Exp. [3, 7]","Stable Film? Theory [3, 7]","Stable Film? Exp. [3, 8]","Stable Film? Theory [3, 8]",other results
OCC(O)CO [Glycerol],60.3 ± 1.1,,,,,,,,,,,,,,,,
O [Water],72.4 ± 0.1,100.3 ± 3.1,67.0 ± 4.5,92.6 ± 1.8,118.9 ± 1.7,90.8 ± 0.9,113.1 ± 2.8,14.4 ± 2.7,~0.0,13.1 ± 1.7,Y,Y/N,Y,Y,,,"Stable Film? Exp. [3, 5]: N; Stable Film? Theory [3, 5]: Y/N; Stable Film? Exp. ([3]; Solid PDMS, Liquid B PDMS, R 1): Y; Stable Film? Theory ([3]; Solid PDMS, Liquid B PDMS, R 1): Y; Stable Film? Exp. ([3]; Solid PP, Liquid B PDMS, R 1): Y; Stable Film? Theory ([3]; Solid PP, Liquid B PDMS, R 1): Y; Stable Film? Exp. ([3]; Solid PP, Liquid B PDMS, R 2): Y; Stable Film? Theory ([3]; Solid PP, Liquid B PDMS, R 2): Y; Stable Film? Exp. ([3]; Solid PTFE, Liquid B PDMS, R 2): Y; Stable Film? Theory ([3]; Solid PTFE, Liquid B PDMS, R 2): Y"
CCCCC [Pentane],17.2 ± 0.5,~0.0,~0.0,~0.0,36.4 ± 2.5,17.0 ± 1.8,30.8 ± 3.1,<5.0,~0.0,<5.0,N,N,Y,Y,N,Y/N,
"O=CCCCC=O [glutaraldehyde, reference compound]",,,,,,,,,,,,,,,,,bacterial growth (optical densities) compared to control culture (P. aeruginosa): massive toxicity
CCCCCCCC [Octane],21.4 ± 0.2,9.7 ± 1.2,6.1 ± 0.2,7.9 ± 0.7,57.7 ± 2.5,23.8 ± 4.0,50.7 ± 3.0,<5.0,~0.0,<5.0,N,N,Y,Y,N,N,
CCCCCCC [Heptane],19.9 ± 0.3,,,,,,,,,,,,,,,,
CCCCCCCCC [Nonane],22.6 ± 0.2,,,,,,,,,,,,,,,,
CCCCCC [Hexane],18.6 ± 0.5,~0.0,~0.0,~0.0,52.5 ± 0.3,22.8 ± 1.7,40.1 ± 4.2,<5.0,~0.0,<5.0,N,N,Y,Y,N,Y/N,
CCCCCCCCCC [Decane],23.6 ± 0.1,15.0 ± 1.6,13.7 ± 0.9,14.2 ± 0.7,66.0 ± 4.1,38.5 ± 0.7,60.0 ± 2.8,7.9 ± 1.0,~0.0,<5.0,N,N,Y,Y,N,N,"Stable Film? Exp. [3, 5]: N; Stable Film? Theory [3, 5]: N"
CCCCCCCCCCCCC [Tridecane],25.9 ± 0.1,28.3 ± 1.1,25.4 ± 0.7,26.9 ± 1.7,72.8 ± 0.2,48.1 ± 3.1,63.5 ± 2.8,,,,N,N,Y,Y,,,"Stable Film? Exp. [3, 5]: N; Stable Film? Theory [3, 5]: Y/N"
CCCCCCCCCCC [Undecane],24.6 ± 0.2,,,,,,,,,,,,,,,,
OCCO [Ethylene Glycol],48.1 ± 0.3,,,,,,,,,,,,,,,,
CCCCCCCCCCCC [Dodecane],25.3 ± 0.1,,,,,,,,,,,,,,,,
CCCCCCCCCCCCCCCC [Hexadecane],27.2 ± 0.2,32.8 ± 1.4,25.7 ± 0.9,30.6 ± 0.4,76.3 ± 1.4,50.0 ± 3.9,70.5 ± 2.0,17.3 ± 1.6,~0.0,5.6 ± 1.1,N,N,Y,Y,N,N,"Stable Film? Exp. [3, 5]: N; Stable Film? Theory [3, 5]: Y/N"
